Measurements taken from PMC8010149, “A Therapeutic Strategy to Combat HIV-1 Latently Infected Cells With a Combination of Latency-Reversing Agents Containing DAG-Lactone PKC Activators” (Frontiers in Microbiology, 2021).

Key:
[1] = test system: HIV-1 in CD4+ T cells from HIV-1-infected individuals; assay: Ex vivo reactivation, intracellular HIV-1 mRNA in primary CD4+ T cells from HIV-1-infected individuals; format: cell-based; details: 10 μM YSE028, 24 h, seven individuals
Protocol: Primary cells were isolated from seven HIV-1^+ individuals, and ex vivo reactivation experiments were conducted as previously described ([Matsuda et al., 2019]). In brief, peripheral blood samples were collected from HIV-1-infected participants receiving cART for at least 5 years (Table 1). All subjects maintained a low viral load (<20 copies/ml, except for occasional “blips”) during therapy. CD4^+ T cell counts in peripheral blood samples ranged from 477 to 992 cells/mm^3 (average: 631 cells/mm^3), and plasma viral loads were <20 copies/ml (except for one participant whose viral load was 22 copies/ml) as measured by quantitative PCR (qPCR; COBAS AmpliPrep/COBAS TaqMan HIV-1 Test version 2.0; Roche Diagnostics, Basel, Switzerland) at the time of study enrollment. The Ethics Committee at the National Center for Global Health and Medicine approved this study (NCGM-G-002259-00), and each patient provided written informed consent. […] The number of HIV-1 RNA copies was calculated using a standard curve obtained from serially diluted HIV-1pNL4-3 plasmid, and normalized values [HIV-1 RNA copies/input RNA (ng)] for each drug were compared to those without drug treatment. The relative increase in HIV-1 RNA levels in the presence of each drug or combination was then determined.

[2] = test system: A3.01 cells; assay: Active caspase-3 by flow cytometry in A3.01 cells; format: cell-based; details: 10 μM, 24 h
[3] = test system: HIV-1 latently infected U1 cells; assay: HIV-1 latency reversal, p24 antigen in supernatant, U1 cells; format: cell-based; details: Human immunodeficiency virus 1, 48 h
Protocol: The reactivation of HIV-1 from latently infected cells was determined by intracellular p24 protein expression and quantification of p24 antigen in the supernatant (ACH-2 and U1 cells), or by changes in intracellular green fluorescent protein (GFP) expression (J-Lat 10.6 cells). J-Lat ([Jordan et al., 2003]), ACH-2, or U1 cells (5 × 10^5 cells/ml) were seeded in 96-well plates and incubated with different drug concentrations for 24 h to collect the cells. The supernatant was collected after 48 h. The increase in supernatant p24 antigen levels was measured using a Lumipulse G1200 (FUJIREBIO, Tokyo, Japan). J-Lat cells (5 × 10^5 cells/ml) were placed in 48-well plates and incubated with different drug concentrations for 24 h. Intracellular p24 protein expression and GFP-positive cells were analyzed by flow cytometry.

[4] = Pharmacokinetics in mice, plasma concentration by LC-MS/MS; format: in vivo; details: BALB/c mice, 10 mg/kg subcutaneous
Protocol: Blood was drawn from mice at 0.5, 1, 3, 6, 12, and 24 h after subcutaneous administration of YSE028 at a dose of 10 mg/kg. Plasma samples were prepared on ice. Blood was collected in a heparin tube and then separated at 5,000 rpm for 10 min at 4°C. Two hundred microliter of MeOH was added to 40 μl of mouse plasma immediately after plasma collection to terminate the enzymatic hydrolysis of YSE028 during sample preparation. All samples were vortexed for 10s and centrifuged at 12,000 g for 10 min at 4°C. The supernatant was then separated. Alectinib (10 ng/ml) in MeOH was used as an internal standard (IS) and added to the supernatant for liquid chromatography tandem mass spectrometry (LC-MS/MS) analysis.
A Nexera X2 UHPLC system (Shimadzu, Kyoto, Japan) connected to a QTRAP5500 mass spectrometer (AB SCIEX, Framingham, MA, United States) was used for LC-MS/MS analysis. The separation of YSE028 and alectinib (IS) was performed using an XBridge C18 column (2.1 × 50 mm, 3.5 μm, Waters). The mobile phases consisted of 10 mM ammonium formate (A) and MeOH (B). The run time was 6 min with a flow rate of 0.5 ml/min. The oven temperature was set to 40°C, and the autosampler chamber was maintained at 4°C. The gradient elution program was set as follows: 0–3.0 min, 60–80% B; 3.1 min–4.0 min, 95% B; and 4.1 min–6 min, 60% B. The sample injection volume was 5 μl. The electrospray ionization interface in positive mode was used to perform tandem mass spectrometry (MS/MS). The MRM transition for YSE028 was m/z 313.1→187.1. The MS parameters were optimized as follows: desolvation temperature, 500°C; curtain gas (CUR), 40; collision gas (CAD), 7; ionspray voltage (IS), 4500v; ion source gas (GS1), 50 psi; ion source gas (GS2), 80 psi; declustering potential (DP), 110 v; entrance potential (EP), 10v; collision energy (CE), 13v; collision cell exit potential (CXP), 20v.

## CCCC(CCC)C(=O)OCC1(CO)CC(=C(C)C)C(=O)O1 (stereo not drawn) [YSE028]
[1]
  HIV-1 mRNA compared to no drug control: 1.66 fold
[2]
  caspase-3 activation: 5.81%
[3]
  EC50: 1810 nM
[4]
  time within which the concentration in blood decreased rapidly: ≤ 3 h
[4]; plasma
  peak concentration (median): 5.14 ng/mL
[4]; mouse, sc, plasma, read-out: time of peak concentration
  Tmax: 1 h
